Laboratory results: patent US20210038688A1, “ICAM-1 MARKER AND APPLICATION THEREOF” (Shanghai Institute of Nutrition and Health, Chinese Academy …, priority 2018, published 2021)

How the values were obtained:
[1] = tested on: wild-type adipose stem cells; assay: in vitro adipogenic differentiation of adipose stem cells derived from WT mice (oil red staining, Western blot, Real time PCR); format: cell-based
Protocol: (§1) FIG. 6E and FIG. 6F respectively show the mRNA levels of Pparg (FIG. 6E) and Fabp4 (FIG. 6F) after adipogenic differentiation of WT and ICAM-1^−/− mice-derived adipose stem cells under […] or DMSO treatment, using Real time PCR.
(§2) Cultivation of adipose stromal cells The sorted CD31^−CD45^−Sca-1^+PDGFR-α^+ adipose stromal cells as well as CD31^−CD45^−Sca-[…]-1^− and other components were cultured in DMEM low-sugar medium supplemented with 10% FBS alone or in combination. In some experiments, adherent adipose mononuclear cells were directly cultured in DMEM low-sugar medium supplemented with 10% FBS, and immune cells and vascular endothelial cells were removed during the medium exchange and passage steps to obtain simple adipose stromal cells.
(§3) For preparing differentiation medium, 0.5 mM 3-isobutyl-1-methylxanthine (IBMX), 50 μM indomethacin, 10 μg/ml insulin and 0.5 μM dexamethasone were added to 10% FBS of DMEM high glucose medium. When the adipose stromal cells grew to 100% confluence, the differentiation medium was changed and the medium was changed every two days, and it was taken about 5 days until differentiation was completed.
(§4) Rho and ROCK can negatively regulate adipogenic differentiation in a cytoskeleton-dependent or insulin signal-dependent manner, and our RNA-seq data also supports the role of Rho GTPase in adipose differentiation. In order to test whether Rho and ROCK are involved in the inhibitory effect of ICAM-1 on adipogenic differentiation of adipose stem cells, we used ROCK inhibitor Y-27632 to treat adipose stem cells respectively. […] Therefore, ICAM-1 inhibits the adipogenic differentiation of adipose stem cells through the Rho-ROCK pathway.
(§5) In order to verify whether Rho GTPase activity can reverse the excessive adipogenic differentiation caused by ICAM-1 deletion, we used the Rho agonist Rho activator II (RA2), which can constitutively activate RhoGTPase. […] It is important that the difference in the expression of adipogenic differentiation genes between wild-type and ICAM-1^−/− cells is eliminated by Rho

[2] = tested on: ICAM-1−/− adipose stem cells; assay: in vitro adipogenic differentiation of adipose stem cells derived from ICAM-1−/− mice (oil red staining, Western blot, Real time PCR); format: cell-based
Protocol: as §1, §2, §3, §4, §5

ICAM-1−/− mice = assay: local RA2 injection into right inguinal fat pad of ICAM-1−/− mice with high-fat diet induced obesity; format: in vivo; conditions: RA2 locally into right inguinal fat pad, 10 weeks
Protocol: (§6) FIG. 6L-6N respectively show the visual observation result (FIG. 6L), adipose tissue observation result (FIG. 6M) and statistical analysis of changes in subcutaneous adipose tissue weight (6N) in the right subcutaneous adipose tissue of WT mice and ICAM-1^−/− mice that were given a high-fat diet induced obesity is injected with RA2 (every 2 days, […]).
(§7) This asymmetry is not observed in RA2-treated WT mice and PBS-treated mice (FIG. 6L).

WT mice = assay: local RA2 injection into right inguinal fat pad of WT mice with high-fat diet induced obesity; format: in vivo; conditions: RA2 locally into right inguinal fat pad, 10 weeks
Protocol: as §6, §7

human adipose stem cells = assay: adipogenic differentiation induction of human primary adipose stromal cells (ICAM-1 siRNA knockdown, RA2); format: cell-based; conditions: RA2 treatment during differentiation; FIG. 7H-J
Protocol: FIGS. 7F-7G respectively show the adipogenic differentiation-related gene expression and Rho GTP activity of adipose stem cells during adipogenic differentiation with the expression of ICAM-1 interfered.
FIGS. 7H-7J respectively show the expressions of adipogenic differentiation-related genes (PPARG, CEBPA, FABP4) in adipose stem cells observed with RA2 activated Rho after interfering with ICAM-1 expression.
as §3
First, the expression content of ICAM-1 in human adipose tissue was analyzed. Currently, there is no recognized characteristic molecule of human preadipocytes. […] These ICAM-1^+ cells, like adipose tissue in mice, are mainly located around blood vessels (FIG. 7B). To test the regulatory effect of ICAM-1 on human adipose stem cells, we isolated human primary adipose stromal cells for adipogenic differentiation induction. […]

| Compound | adipogenic differentiation ability (oil red staining) ([1]; RA2 added during in vitro differentiation, wild-type cells, FIG. 6G) | adipogenic differentiation genes Pparg, Cebpa, Fabp4, Plin1 (mRNA, Real time PCR) ([1]; Rho GTPase activation by RA2, wild-type cells, FIG. 6H-K) | adipogenic differentiation ability (oil red staining) ([2]; RA2 added during in vitro differentiation, ICAM-1−/− cells, FIG. 6G) | difference in the expression of adipogenic differentiation genes between wild-type and ICAM-1−/− cells ([2]; Rho GTPase activation by RA2, FIG. 6H-K) | adipogenic differentiation genes Pparg, Cebpa, Fabp4, Plin1 (mRNA, Real time PCR) ([2]; Rho GTPase activation by RA2, ICAM-1−/− precursor cells, FIG. 6H-K) | excessive adipogenic differentiation (inguinal fat pads, injected right vs left side) (ICAM-1−/− mice; FIG. 6L) | fat weight (subcutaneous adipose tissue) (ICAM-1−/− mice; every 2 days, FIG. 6M-N) | asymmetry of inguinal fat pads on both sides (WT mice; FIG. 6L) | fat weight (subcutaneous adipose tissue) (WT mice; every 2 days, FIG. 6M-N) | enhancement of adipogenic differentiation of ICAM-1 knock-down cells (PPARG, CEBPA, FABP4 expression) (human adipose stem cells) | adipogenic differentiation (oil red staining) ([1]; 10 μM Y-27632 compared with DMSO-treated group, wild-type cells, FIG. 6C) | expression level of Perilipin A protein (Western blot) ([1]; Y-27632 vs DMSO, wild-type cells after adipogenic differentiation) | expression of adipogenic differentiation-related proteins and genes (Perilipin A, Pparg, Fabp4) ([1]; inhibiting ROCK (Y-27632 vs DMSO), wild-type cells, FIG. 6D-F) | adipogenic differentiation (oil red staining) ([2]; 10 μM Y-27632 compared with DMSO-treated group, ICAM-1−/− cells, FIG. 6C) | expression level of Perilipin A protein (Western blot) ([2]; Y-27632 vs DMSO, ICAM-1−/− cells after adipogenic differentiation) | expression of adipogenic differentiation-related proteins and genes (Perilipin A, Pparg, Fabp4) ([2]; inhibiting ROCK (Y-27632 vs DMSO), ICAM-1−/− cells, FIG. 6D-F) |
| --- | --- | --- | --- | --- | --- | --- | --- | --- | --- | --- | --- | --- | --- | --- | --- | --- |
| Rho activator II [RA2] | not obvious | only Pparg and Fabp4 are significantly changed | significantly inhibited | eliminated | extensive reduction | weakened | significantly reduce | not observed | not | eliminated |  |  |  |  |  |  |
| C[C@@H](N)[C@H]1CC[C@H](C(=O)Nc2ccncc2)CC1 [Y-27632] |  |  |  |  |  |  |  |  |  |  | significantly accelerate | significantly increase | significantly increase | no obvious effect | little effect | not obvious |
